Experimental data: patent US11484543B2, “Compositions and methods for diagnosing and treating diseases and disorders associated with mutant KCNJ5” (The Rockefeller University, priority 2017, dated 2022)
Read-outs that look alike come from different tables or passages of the source.

How the values were obtained:
[1] = single dose of 300 mg, healthy adults, cited from earlier work
[2] = system: CYP11B2 (aldosterone synthase) expression, H295R cells expressing KCNJ5^L168R; test: Real-time PCR of CYP11B2 in H295R cells transfected with KCNJ5^L168R; format: cell-based, human; settings: 5, 20 or 50 μM for 18 h; p=0.0034 at 20 μM
Protocol: (§1) H295R cells were cultured in DMEM/F12, HEPES (Gibco) supplemented with 2.5% Ultroser G (Pall Biosepra), 1% ITS+ Premix (Corning) and 1% Penicillin/Streptomycin (Gibco). Plasmids were purified using the Endofree Maxi Kit (Qiagen). […] 3×10^6 cells were transfected with 3 μg pIRES eGFP containing no insert, WT or mutant KCNJ5 using an Amaxa Nucleofector I (program P-20) and the Nucleofector Kit R (Lonza). Cells were allowed to recover briefly in RPMI 1640 medium (Gibco). […] After an additional 18 h, RNA was harvested using the RNeasy Mini Kit (Qiagen) following the manufacturer's instructions. 300 ng RNA were transcribed using the Quantitect Reverse Transcription Kit (Qiagen). Expression levels of CYP11B2 and GAPDH were quantified in triplicates in a 7300 Real-Time PCR System (Applied Biosystems) using the Taqman Gene Expression Master Mix and assays Hs01597732_m1 (CYP11B2) or HS02758991_g1 (GAPDH) (all Applied Biosystems). DDCT values were calculated by normalization of DCT values, using the average DCT of vehicle treated empty vector-transfected cells as a reference.
(§2) This cell line is derived from a human adrenocortical carcinoma and represents a commonly used in vitro model of zona glomerulosa aldosterone production (Wang et al. 2012, Horm. Metab. Res. 44:245-250). […]

[3] = system: CYP11B2 (aldosterone synthase) expression, H295R cells expressing KCNJ5^G151R; test: Real-time PCR of CYP11B2 in H295R cells transfected with KCNJ5^G151R; format: cell-based, human; settings: 5, 20 or 50 μM for 18 h; p=0.0006 at 20 μM
Protocol: as §1, §2

KCNJ5^WT = biological target: T1, KCNJ5^WT (Homo sapiens, UniProt P48544); test: Perforated whole-cell patch clamp, KCNJ5^WT homotetramers in HEK293T cells; format: cell-based; settings: increasing concentrations, −80 mV (FIG. 12D)
T1 construct: expressed in transfected cells
T1 sequence (P48544 1-419): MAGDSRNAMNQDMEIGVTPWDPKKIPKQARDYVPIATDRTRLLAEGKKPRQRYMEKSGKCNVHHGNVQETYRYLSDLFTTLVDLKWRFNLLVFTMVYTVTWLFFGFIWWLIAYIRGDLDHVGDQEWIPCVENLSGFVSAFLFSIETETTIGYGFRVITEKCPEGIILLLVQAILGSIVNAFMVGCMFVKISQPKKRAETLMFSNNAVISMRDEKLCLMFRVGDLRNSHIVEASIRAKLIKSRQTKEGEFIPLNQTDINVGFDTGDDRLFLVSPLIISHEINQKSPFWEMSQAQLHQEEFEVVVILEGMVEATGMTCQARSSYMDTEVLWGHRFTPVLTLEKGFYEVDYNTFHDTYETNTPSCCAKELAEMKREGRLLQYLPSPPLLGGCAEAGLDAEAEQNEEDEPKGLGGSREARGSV
Protocol: Cation currents were measured with the perforated whole cell recording technique (140 mM NaCl/5 mM KCl bath solution, 140 mM KCl pipette solution for KCNJ5^G151R; 140 mM NaCl/5 mM KCl bath solution, 140 mM KCl, 1.8 mM MgCl2 pipette solution for KCNJ5^L168R; 140 mM KCl bath and pipette solution for KCNJ5^WT). […] Errors represent standard error of the mean, N=3 to 6. […] In contrast, WT currents are not inhibited.
HEK293T cells (American Type Culture Collection) were used for transient expression of GFP-tagged KCNJ5 or KCNJ3. The cells were grown in Dulbecco's modified Eagle medium (DMEM; Invitrogen) supplemented with 10% FBS (Invitrogen) in 5% CO2 and 95% air at 37° C. […]
Within 24 hr after transfection, the cells were treated with trypsin-containing medium (TrypLE Express) (Gibco) for 10 minutes to detach the cells. […] Fluorescence signal (an indication of positive transfection) was detected with an intensified video imaging system including a SIT 68 camera (Long Island Industries). […] After forming a high resistance seal (>2 GΩ), the membrane capacitance was monitored until the whole-cell patch configuration was formed. The cell membrane capacitance was measured and compensated. The K/cation currents were measured from −80 mV to 20 mV with 20 mV steps by an Axon 200A patch-clamp amplifier. […]

CC[C@H]1OC(=O)[C@H](C)[C@@H](O[C@H]2C[C@@](C)(OC)[C@@H](O)[C@H](C)O2)[C@H](C)[C@@H](O[C@@H]2O[C@H](C)C[C@H](N(C)C)[C@H]2O)[C@](C)(O)C[C@@H](C)/C(=N\OCOCCOC)[C@H](C)[C@@H](O)[C@]1(C)O [Roxithromycin, roxithromycin]
maximum serum concentrations [1]: 16.4 mg/L
maximum serum concentrations ([1]; conversion of 16.4 mg/L): ~17 µM
expression of CYP11B2 [2]: inhibited expression of CYP11B2 in a dose-dependent fashion
expression of CYP11B2 [3]: inhibited expression of CYP11B2 in a dose-dependent fashion
inhibition of WT currents (KCNJ5^WT): not inhibited
